From patent US6589970B2, “6-(aryl-amido or aryl-amidomethyl)-naphthalen-2-yloxy-acidic derivatives as inhibitors of plasminogen activator inhibitor type-1 (PAI-1)” (Wyeth, priority 2001, dated 2003)

Key:
human PAI-1 = human PAI-1 (Homo sapiens, UniProt P05121); assay: Assay for Determining IC50 of Inhibition of PAI-1 (Antibody Assay); assay type: biochemical; details: active PAI-1 bound to tPA-coated plate
Description: This assay is based upon the non-SDS dissociable interaction between tPA and active PAI-1. Assay plates are initially coated with human tPA (10 μg/ml). The test compounds are dissolved in DMSO at 10 mM, then diluted with physiologic buffer (pH 7.5) to a final concentration of 1-50 μM. The test compounds are incubated with human PAI-1 (50 ng/ml) for 15 minutes at room temperature. The tPA-coated plate is washed with a solution of 0.05% Tween 20 and 0.1% BSA, then the plate is blocked with a solution of 3% BSA. An aliquot of the test compound/PAI-1 solution is then added to the tPA-coated plate, incubated at room temperature for 1 hour, and washed. Active PAI-1 bound to the plate is assessed by adding an aliquot of a 1:1000 dilution of the 33B8 monoclonal antibody against human PAI-1, and incubating the plate at room temperature for 1 hour (Molecular Innovations, Royal Oak, Mich. The plate is again washed, and a solution of goat anti-mouse IgG-alkaline phosphatase conjugate is added at a 1:50,000 dilution in goat serum. The plate is incubated 30 minutes at room temperature, washed, and a solution of alkaline phosphatase substrate is added. The plate is incubated 45 minutes at room temperature, and color development is determined at OD405nm. The quantitation of active PAI-1 bound to tPA at varying concentrations of the test compound is used to determine the IC50. Results are analyzed using a logarithmic best-fit equation. The assay sensitivity is 5 ng/ml of human PAI-1 as determined from a standard curve ranging from 0-100 ng/ml.

[1] = biological target: T1, recombinant human plasminogen activator inhibitor-1 (PAI-1) (Homo sapiens, UniProt P05121); assay: Modification of the Primary Screen for the PAI-1 Inhibition (IC50); assay type: biochemical
T1 construct: purchased Molecular Innovations, Royal Oak, Mich
T1 sequence (P05121 24-402): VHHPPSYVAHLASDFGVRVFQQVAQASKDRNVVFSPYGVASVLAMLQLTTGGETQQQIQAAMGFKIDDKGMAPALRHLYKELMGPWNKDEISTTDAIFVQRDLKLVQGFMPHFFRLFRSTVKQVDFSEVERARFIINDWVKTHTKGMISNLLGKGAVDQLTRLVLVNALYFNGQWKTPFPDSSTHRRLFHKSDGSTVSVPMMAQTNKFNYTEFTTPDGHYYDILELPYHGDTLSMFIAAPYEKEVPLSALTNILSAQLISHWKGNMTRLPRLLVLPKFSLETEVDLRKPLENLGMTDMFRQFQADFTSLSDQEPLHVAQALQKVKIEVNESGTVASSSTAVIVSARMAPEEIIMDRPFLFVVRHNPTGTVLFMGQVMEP
Description: Test compounds are dissolved in DMSO at a final concentration of 10 mM, then diluted 100× in physiologic buffer. The inhibitory assay is initiated by the addition of the test compound (1-100 μM final concentration, maximum DMSO concentration of 0.2%) in a pH 6.6 buffer containing 140 nM recombinant human plasminogen activator inhibitor-1 (PAI-1; Molecular Innovations, Royal Oak, Mich.). Following a 1 hour incubation at room temperature, 70 nM of recombinant human tissue plasminogen activator (tPA) is added, and the combination of the test compound, PAI-1 and tPA is incubated for an additional 30 minutes. Following the second incubation, Spectrozyme-tPA (American Diagnostica, Greenwich, Conn.), a chromogenic substrate for tPA, is added and absorbance read at 405 nm at 0 and 60 minutes. Relative PAI-1 inhibition is equal to the residual tPA activity in the presence of the test compound and PAI-1. Control treatments include the complete inhibition of tPA by PAI-1 at the molar ratio employed (2:1), and the absence of any effect of the test compound on tPA alone.

[2] = biological target: T1, recombinant human plasminogen activator inhibitor-1 (PAI-1); assay: Primary Screen for the PAI-1 Inhibition; assay type: biochemical; details: for inhibition at 25 µM: 25 μM test compound, read-out: % Inhib. 25 μM; for inhibition at 100 µM: 100 μM test compound, read-out: % Inhib. 100 μM
How it was run: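 Compound (1-100 μM final, ≤0.2% DMSO) was preincubated for 1 h at room temperature with 140 nM recombinant human PAI-1 at pH 6.6. tPA was then added at 70 nM for 30 min. Residual tPA activity was measured with Spectrozyme-tPA (A405 at 0 and 60 min) and taken as relative PAI-1 inhibition.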

human PAI-1, sequence (P05121 24-402): as above

IC50 (human PAI-1) [µM]	IC50 [1] [µM]	inhibition at 25 µM [2] [%]	inhibition at 100 µM [2] [%]	melting point [°C]	Structure (SMILES)
8.12	8.7	35	86	86 to 100	O=C(NCc1ccc2c(Br)c(OC(Cc3ccccc3)C(=O)O)ccc2c1)c1ccc(Oc2cc(Cl)cc(Cl)c2)o1 (stereo not drawn) [Example 53, 2-[1-Bromo-6-({[5-(3,5-dichloro-phenoxy)-furan-2-carbonyl]-amino}-methyl)-naphthalen-2-yloxy]-3-phenyl-propionic acid]
17.5	20.9	48	85		CCCCc1oc2ccccc2c1C(=O)N(Cc1ccccc1)Cc1ccc2c(Br)c(OCc3nnn[nH]3)ccc2c1 [Example 48, 2-Butyl-benzofuran-3-carboxylic acid benzyl-[5-bromo-6-(1H-tetrazol-5-ylmethoxy)-naphthalen-2-ylmethyl]-amide]
18.7	6.9	69	91		CCCCc1oc2ccccc2c1C(=O)N(CCCC)Cc1ccc2c(Br)c(OCc3nnn[nH]3)ccc2c1 [Example 51, 2-Butyl-benzofuran-3-carboxylic acid [5-bromo-6-(1H-tetrazol-5-ylmethoxy)-naphthalen-2-ylmethyl]-butyl-amide]
16.1	1.4		80	214 to 215	CCCCc1oc2ccccc2c1C(=O)NCc1ccc2c(Br)c(OCc3nnn[nH]3)ccc2c1.[Na] [Example 17, 2-Butyl-benzofuran-3-carboxylic acid [5-bromo-6-(1H-tetrazol-5-ylmethoxy)-naphthalen-2-ylmethyl]-amide sodium salt]
8.47	15.6	62	95	190 to 194	CCCCc1oc2ccccc2c1C(=O)N(C)Cc1ccc2c(Br)c(OCc3nnn[nH]3)ccc2c1 [Example 31, 2-Butyl-benzofuran-3-carboxylic acid [5-bromo-6-(1H-tetrazol-5-ylmethoxy)-naphthalen-2-ylmethyl]-methyl-amide]
16.8	11.8	35	60		O=C(NCc1ccc2c(Br)c(OC(Cc3ccccc3)C(=O)O)ccc2c1)c1ccc(C2CCCCC2)cc1 (stereo not drawn) [Example 55]
	3.2	38	75	194 to 198	CCCCc1oc2ccccc2c1C(=O)Nc1ccc2cc(OCc3nn[nH]n3)ccc2c1 [Example 3, 2-Butyl-benzofuran-3-carboxylic acid [6-(2H-tetrazol-5-ylmethoxy)-naphthalen-2-yl]-amide]
16.8	9.94	25	72	192 to 196	CCCCc1oc2ccccc2c1C(=O)NCc1ccc2c(-c3ccccc3)c(OCc3nnn[nH]3)ccc2c1 [Example 24, 2-Butyl-benzofuran-3-carboxylic acid [5-phenyl-6-(1H-tetrazol-5-ylmethoxy)-naphthalen-2-ylmethyl]-amide]
16.6	7.8	64	83		CCCCc1oc2ccccc2c1C(=O)Nc1ccc2c(Br)c(OC(Cc3ccccc3)C(=O)O)ccc2c1 (stereo not drawn) [Example 7, 2-{1-Bromo-6-[(2-butyl-benzofuran-3-carbonyl)-amino]-naphthalen-2-yloxy}-3-phenyl-propionic acid]
